Laboratory results: PubChem BioAssay (NCI)
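Growth conditions: 96-well plates. Treatment: test compound, 48 hours, 5 concentrations. Analysis: linear interpolation between bracketing concentrations; unreached endpoints set to highest concentration. TGI is the concentration that stops growth completely.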

Experiments:
Test in all cases: growth of human tumour cells (NCI), 48 h
M14 melanoma = test system: M14 melanoma
HOP-62 NSCLC = test system: HOP-62 NSCLC
HOP-92 NSCLC = test system: HOP-92 NSCLC
UACC-62 melanoma = test system: UACC-62 melanoma
CAKI-1 renal = test system: CAKI-1 renal
PC-3 prostate = test system: PC-3 prostate
HCT-15 colon = test system: HCT-15 colon
OVCAR-5 ovarian = test system: OVCAR-5 ovarian
T-47D breast = test system: T-47D breast
SK-OV-3 ovarian = test system: SK-OV-3 ovarian
SK-MEL-5 melanoma = test system: SK-MEL-5 melanoma
RPMI-8226 leukemia = test system: RPMI-8226 leukemia
SK-MEL-2 melanoma = test system: SK-MEL-2 melanoma
OVCAR-4 ovarian = test system: OVCAR-4 ovarian
U251 CNS = test system: U251 CNS
OVCAR-8 ovarian = test system: OVCAR-8 ovarian
NCI/ADR-RES ovarian = test system: NCI/ADR-RES ovarian
DU-145 prostate = test system: DU-145 prostate
NCI-H226 lung = test system: NCI-H226 lung
SW-620 colon = test system: SW-620 colon
HL-60(TB) leukemia = test system: HL-60(TB) leukemia
SF-268 CNS = test system: SF-268 CNS
HS 578T breast = test system: HS 578T breast
SK-MEL-28 melanoma = test system: SK-MEL-28 melanoma
SF-295 CNS = test system: SF-295 CNS
MOLT-4 leukemia = test system: MOLT-4 leukemia
SNB-75 CNS = test system: SNB-75 CNS
A498 renal = test system: A498 renal
SNB-19 CNS = test system: SNB-19 CNS
CCRF-CEM leukemia = test system: CCRF-CEM leukemia
NCI-H460 lung = test system: NCI-H460 lung
MALME-3M melanoma = test system: MALME-3M melanoma
786-0 renal = test system: 786-0 renal
MDA-MB-435 = test system: MDA-MB-435
MCF7 breast = test system: MCF7 breast
RXF 393 renal = test system: RXF 393 renal
UACC-257 melanoma = test system: UACC-257 melanoma
COLO 205 colon = test system: COLO 205 colon
EKVX NSCLC = test system: EKVX NSCLC
HCT-116 colon = test system: HCT-116 colon
OVCAR-3 ovarian = test system: OVCAR-3 ovarian
SN12C renal = test system: SN12C renal
K-562 leukemia = test system: K-562 leukemia
A549 NSCLC = test system: A549 NSCLC
MDA-N = test system: MDA-N
HT29 colon = test system: HT29 colon
TK-10 renal = test system: TK-10 renal
KM12 colon = test system: KM12 colon
IGROV1 ovarian = test system: IGROV1 ovarian
NCI-H522 lung = test system: NCI-H522 lung
UO-31 renal = test system: UO-31 renal
MDA-MB-231 breast = test system: MDA-MB-231 breast
HCC-2998 colon = test system: HCC-2998 colon
ACHN renal = test system: ACHN renal
LOX IMVI melanoma = test system: LOX IMVI melanoma
NCI-H23 lung = test system: NCI-H23 lung
SF-539 CNS = test system: SF-539 CNS

N/C(=N/N=C/c1cc(Br)cc(Br)c1O)NO
TGI (M14 melanoma): 12.3 µM
TGI (HOP-62 NSCLC): 25.9 µM
TGI (HOP-92 NSCLC): 25.2 µM
TGI (UACC-62 melanoma): 7.52 µM
TGI (CAKI-1 renal): 2540 nM
TGI (PC-3 prostate): > 59 µM
TGI (HCT-15 colon): > 46.6 µM
TGI (OVCAR-5 ovarian): > 100 µM
TGI (T-47D breast): 11.2 µM
TGI (SK-OV-3 ovarian): > 47.6 µM
TGI (SK-MEL-5 melanoma): 38.5 µM
TGI (RPMI-8226 leukemia): 15.7 µM
TGI (SK-MEL-2 melanoma): 82.9 µM
TGI (OVCAR-4 ovarian): 71.4 µM
TGI (U251 CNS): > 100 µM
TGI (OVCAR-8 ovarian): > 25.4 µM
TGI (NCI/ADR-RES ovarian): 18.9 µM
TGI (DU-145 prostate): > 23.8 µM
TGI (NCI-H226 lung): 6.54 µM
TGI (SW-620 colon): > 100 µM
TGI (HL-60(TB) leukemia): 2310 nM
TGI (SF-268 CNS): 8.75 µM
TGI (HS 578T breast): > 75.3 µM
TGI (SK-MEL-28 melanoma): > 100 µM
TGI (SF-295 CNS): > 45.9 µM
TGI (MOLT-4 leukemia): 5.58 µM
TGI (SNB-75 CNS): > 28.3 µM
TGI (A498 renal): 16 µM
TGI (SNB-19 CNS): > 80.7 µM
TGI (CCRF-CEM leukemia): 3.26 µM
TGI (NCI-H460 lung): 27.5 µM
TGI (MALME-3M melanoma): 17.1 µM
TGI (786-0 renal): > 40.7 µM
TGI (MDA-MB-435): > 81.2 µM
TGI (MCF7 breast): > 89.3 µM
TGI (RXF 393 renal): 53.4 µM
TGI (UACC-257 melanoma): 99.5 µM
TGI (COLO 205 colon): 49.8 µM
TGI (EKVX NSCLC): 75.1 µM
TGI (HCT-116 colon): 44 µM
TGI (OVCAR-3 ovarian): 13.1 µM
TGI (SN12C renal): 8.8 µM
TGI (K-562 leukemia): 21.5 µM
TGI (A549 NSCLC): 53.7 µM
TGI (MDA-N): > 100 µM
TGI (HT29 colon): > 100 µM
TGI (TK-10 renal): > 45.6 µM
TGI (KM12 colon): 51.4 µM
TGI (IGROV1 ovarian): 4.66 µM
TGI (NCI-H522 lung): 88.6 µM
TGI (UO-31 renal): 8.4 µM
TGI (MDA-MB-231 breast): 40.6 µM
TGI (HCC-2998 colon): > 53.8 µM
TGI (ACHN renal): 9.66 µM
TGI (LOX IMVI melanoma): 19.8 µM
TGI (NCI-H23 lung): > 80.2 µM
TGI (SF-539 CNS): > 31.9 µM

Cc1cc2c(c(C)c1O)C(C)(C)CN2C(=O)C(C)(C)C
TGI (M14 melanoma): > 100 µM
TGI (HOP-62 NSCLC): > 100 µM
TGI (HOP-92 NSCLC): 78.5 µM
TGI (UACC-62 melanoma): > 100 µM
TGI (PC-3 prostate): > 100 µM
TGI (HCT-15 colon): > 100 µM
TGI (OVCAR-5 ovarian): > 100 µM
TGI (T-47D breast): > 100 µM
TGI (SK-OV-3 ovarian): > 100 µM
TGI (SK-MEL-5 melanoma): > 100 µM
TGI (RPMI-8226 leukemia): > 100 µM
TGI (OVCAR-4 ovarian): > 100 µM
TGI (U251 CNS): > 100 µM
TGI (OVCAR-8 ovarian): > 100 µM
TGI (NCI/ADR-RES ovarian): 41.2 µM
TGI (DU-145 prostate): > 100 µM
TGI (NCI-H226 lung): > 100 µM
TGI (SW-620 colon): > 100 µM
TGI (HL-60(TB) leukemia): > 100000 nM
TGI (SF-268 CNS): > 100 µM
TGI (HS 578T breast): > 100 µM
TGI (SK-MEL-28 melanoma): > 100 µM
TGI (SF-295 CNS): > 100 µM
TGI (MOLT-4 leukemia): > 100 µM
TGI (SNB-75 CNS): 89.2 µM
TGI (A498 renal): > 100 µM
TGI (SNB-19 CNS): > 100 µM
TGI (CCRF-CEM leukemia): > 100 µM
TGI (NCI-H460 lung): > 100 µM
TGI (786-0 renal): > 100 µM
TGI (MDA-MB-435): > 100 µM
TGI (MCF7 breast): > 100 µM
TGI (RXF 393 renal): 86.9 µM
TGI (UACC-257 melanoma): > 100 µM
TGI (COLO 205 colon): > 100 µM
TGI (EKVX NSCLC): > 100 µM
TGI (HCT-116 colon): > 100 µM
TGI (OVCAR-3 ovarian): 28.3 µM
TGI (SN12C renal): > 100 µM
TGI (K-562 leukemia): > 100 µM
TGI (A549 NSCLC): > 100 µM
TGI (MDA-N): > 100 µM
TGI (HT29 colon): > 100 µM
TGI (TK-10 renal): > 100 µM
TGI (KM12 colon): > 100 µM
TGI (IGROV1 ovarian): > 100 µM
TGI (NCI-H522 lung): > 100 µM
TGI (UO-31 renal): > 100 µM
TGI (MDA-MB-231 breast): > 100 µM
TGI (HCC-2998 colon): > 100 µM
TGI (ACHN renal): > 100 µM
TGI (LOX IMVI melanoma): > 100 µM
TGI (NCI-H23 lung): > 100 µM
TGI (SF-539 CNS): > 100 µM
